Columns and labels:
[1] = Stability study in culture media (LC/MS); type: physicochemical; details: RPMI-1640, LC/MS, up to 72 h
Text: Having established the reversible binding of Compound 1 to quadruplex DNA and selective quadruplex-dependent silencing of c-Myc, one consideration that remained was the presence of a benzylaminophenol functional group in Compound 1. It has previously been reported that compounds containing this functional group can have the propensity to eject amines, form an o-quinone methide, and alkylate proteins (Weinert, et al., J Am Chem Soc 2006, 128, 11940; Herzig, et al., J Org Chem 2006, 71, 4130; McLean, et al., Bioorg Med Chem Lett 2009, 19, 6717). To assess whether Compound 1 was undergoing this reactivity, a small series of analogs was prepared. In FIG. 6C, compounds lacking the phenol or amino group were prepared and evaluated. […] Additionally, the stability of Compound 1 was evaluated (see FIG. 7). […] Additionally, the putative hydrolysis products arising from quinone methide formation were not observed at any time by LC/MS.
Compound 1 (10 μL of 1 mM DMSO solution) was added to 490 μL RPMI-1640 culture media. After 1 min, 25 h, 48 h, and 72 h, 100 μL of this solution was diluted into 100 μL acetonitrile. The mixture was centrifuged at 5500 rpm for 1 min and the supernatant was removed from the pellet. […]
Compound 1 (10 μL of 1 mM DMSO solution) was added to 490 μL RPMI-1640 culture media. […] The mass corresponding to Compound 1 (M+H^+=393) was extracted and the chromatogram evaluated. […]

[2] = tested on: c-Myc protein; test: c-Myc protein translation in myeloma cells (Western blot); type: cell-based, human; details: 10 μM, maintained over 72 hours
Protocol: (§1) Since two thirds of multiple myeloma cases involve deregulated c-MYC expression (Kuehl and Bergsagel, Blood 2012, 120, 2351; Shou, et al., Proc Natl Acad Sci USA 2000, 97, 228), we elected to evaluate the cell viability effects of Compound 1 in a multiple myeloma model. […] This suppression was maintained over 72 hours, which is notable given the characteristic rapid replenishment of the protein—a phenomenon that complicates targeting c-Myc at the protein level (FIG. 4C). This effect was maintained across a genetically diverse set of 4 multiple myeloma lines. We observed decreases in c-MYC translation in all lines tested, and this effect also correlated with decreases in viability (FIG. 4D).
Cell pellets/tissue were homogenized and lysed in RIPA buffer on ice for 1 h. Protein was quantitated by BCA, and equal protein was loaded onto 4-12% Bis-Tris Gels (Novex), electrophoresed at 150 V for 75 min to obtain sufficient separation, and transferred via the iBlot system (Life Technologies). Successful transfer and uniform loading was confirmed by Ponceau S staining (Thermo Scientific). Blots were blocked in 10% dry milk in TBST, incubated with primary monoclonal antibodies in 5% BSA at concentrations designated by the manufacturer, and gently rotated at 4° C. overnight. […]

[3] = tested on: peripheral blood mononucleocytes; test: Viability of peripheral blood mononucleocytes; type: cell-based; details: healthy volunteer cells; doses 25% higher than for cell treatments
Protocol: as §1

[4] = tested on: myeloma cells; test: Apoptosis (Annexin V/7-AAD staining, FACS); type: cell-based, human; details: 10 μM, 72 h
Protocol: To further explore the mechanism of action for the anticancer activity of Compound 1, cell cycle analysis was performed and monitored for potential induction of apoptotic death. […] Additionally, minimal increases in apoptosis were observed, by Annexin V/7-AAD staining and FACS analysis; only 13% of the cells were undergoing apoptosis (FIG. 5B).

[5] = tested on: KRAS, VEGF G4s; test: Biophysical measurements of compound affinity, KRAS and VEGF G4s; type: binding
[6] = Pharmacokinetic evaluation, blood plasma levels by mass spectrometry; type: in vivo; details: single injection 19 mg/kg, female nude mice; for Tmax / half-life: mouse
Protocol: The blood plasma levels of Compound 23 after a single IP or IV injection (19 mg/kg) in female nude mice were determined by mass spectrometry (see FIG. 12 and the following table).

With `Cc1ccc(NC(=O)c2c(C)oc3ccc(O)c(CN4CCCCCC4)c23)cc1` [Compound 1] the “stability in culture media” value [1] was “persisted in culture media over a period of 72 h”, the c-Myc protein translation [2] was “significantly inhibited” and the viability [3] was “did not alter viability”. For the same compound, the cells undergoing apoptosis [4] was 13% and the G4 binding [5] was “complete lack of G4 binding”.

In the case of `Cc1oc2ccc(O)c(CN3CCCCCC3)c2c1C(=O)Nc1ccc(C(F)(F)F)cc1` [Compound 23], the Kel ([6]; IP) is reported as 0.277 h⁻¹, the Kel ([6]; IV) is reported as 0.277 h⁻¹ and the Tmax ([6]; IP) is reported as 1 h. The half-life ([6]; IP) was 6.5 h, the Tmax ([6]; IV) was 0.38 h and the half-life ([6]; IV) was 2.25 h.

— US11014902B2, “MYC G-quadruplex stabilizing small molecules and their use” (The United States of America, as represented by the …, priority 2015, dated 2021)
